Reference: PubChem BioAssay (NCI)
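How tested: cells in 96-well plates exposed to compound for 48 hours at five concentrations. GI50 marks 50% less growth. TGI marks complete inhibition of growth.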

How the values were obtained:
Assay in all cases: growth of human tumour cells (NCI), 48 h
[1] = system: 786-0 renal
[2] = system: A498 renal
[3] = system: A549 NSCLC
[4] = system: ACHN renal
[5] = system: BT-549 breast
[6] = system: CAKI-1 renal
[7] = system: CCRF-CEM leukemia
[8] = system: COLO 205 colon
[9] = system: DU-145 prostate
[10] = system: EKVX NSCLC
[11] = system: HCC-2998 colon
[12] = system: HCT-116 colon
[13] = system: HCT-15 colon
[14] = system: HL-60(TB) leukemia
[15] = system: HOP-62 NSCLC
[16] = system: HOP-92 NSCLC
[17] = system: HS 578T breast
[18] = system: HT29 colon
[19] = system: IGROV1 ovarian
[20] = system: K-562 leukemia
[21] = system: KM12 colon
[22] = system: LOX IMVI melanoma
[23] = system: M14 melanoma
[24] = system: MALME-3M melanoma
[25] = system: MCF7 breast
[26] = system: MDA-MB-231 breast
[27] = system: MDA-MB-435
[28] = system: MOLT-4 leukemia
[29] = system: NCI-H226 lung
[30] = system: NCI-H23 lung
[31] = system: NCI-H460 lung
[32] = system: NCI-H522 lung
[33] = system: NCI/ADR-RES ovarian
[34] = system: OVCAR-3 ovarian
[35] = system: OVCAR-4 ovarian
[36] = system: OVCAR-5 ovarian
[37] = system: OVCAR-8 ovarian
[38] = system: PC-3 prostate
[39] = system: RPMI-8226 leukemia
[40] = system: RXF 393 renal
[41] = system: SF-268 CNS
[42] = system: SF-295 CNS
[43] = system: SF-539 CNS
[44] = system: SK-MEL-2 melanoma
[45] = system: SK-MEL-28 melanoma
[46] = system: SK-MEL-5 melanoma
[47] = system: SK-OV-3 ovarian
[48] = system: SN12C renal
[49] = system: SNB-19 CNS
[50] = system: SNB-75 CNS
[51] = system: SR leukemia
[52] = system: SW-620 colon
[53] = system: T-47D breast
[54] = system: TK-10 renal
[55] = system: U251 CNS
[56] = system: UACC-257 melanoma
[57] = system: UACC-62 melanoma
[58] = system: UO-31 renal
[59] = system: MDA-N

`N=c1ccc2nc3ccc(N)cc3sc-2c1` was tested, and the GI50 [1] was 9.99 µM, the TGI [1] was 29.7 µM and the GI50 [2] was 26.2 µM. It also gave a TGI [2] greater than 100 µM, a GI50 [3] of 3.43 µM and a TGI [3] greater than 100 µM. For the same compound, the GI50 [4] was 8.55 µM, the TGI [4] was 23.2 µM and the GI50 [5] was 10.6 µM. The TGI [5] was 60.9 µM, the GI50 [6] was 4.19 µM and the TGI [6] was 20.3 µM. It also gave a GI50 [7] of 3.55 µM, a TGI [7] of 35.3 µM and a GI50 [8] of 2.25 µM. It also gave a TGI [8] of 12.5 µM, a GI50 [9] of 16.8 µM and a TGI [9] of 40.8 µM. The GI50 [10] was 6.63 µM, the TGI [10] was 81.1 µM and the GI50 [11] was 6.82 µM. The TGI [11] was 97.7 µM, the GI50 [12] was 2.67 µM and the TGI [12] was 10.5 µM. For the same compound, the GI50 [13] was 5.4 µM, the TGI [13] was greater than 100 µM and the GI50 [14] was 1.9 µM. It also gave a TGI [14] of 20.8 µM, a GI50 [15] of 5.06 µM and a TGI [15] of 49.4 µM. For the same compound, the GI50 [16] was 17.7 µM, the TGI [16] was 61 µM and the GI50 [17] was 20.9 µM. It also gave a TGI [17] greater than 100 µM, a GI50 [18] of 11.1 µM and a TGI [18] of 40.8 µM. For the same compound, the GI50 [19] was 6.77 µM, the TGI [19] was 75 µM and the GI50 [20] was 4.47 µM. The TGI [20] was 74.9 µM, the GI50 [21] was 4.24 µM and the TGI [21] was greater than 100 µM. The GI50 [22] was 2.72 µM, the TGI [22] was 12.5 µM and the GI50 [23] was 4.34 µM. It also gave a TGI [23] of 21.8 µM, a GI50 [24] of 6.22 µM and a TGI [24] of 32.5 µM. For the same compound, the GI50 [25] was 3.5 µM, the TGI [25] was 13.1 µM and the GI50 [26] was 3.56 µM. The TGI [26] was 20.3 µM, the GI50 [27] was 2.37 µM and the TGI [27] was 5.21 µM. It also gave a GI50 [28] of 4.59 µM, a TGI [28] greater than 100 µM and a GI50 [29] of 12.4 µM. It also gave a TGI [29] of 28.2 µM, a GI50 [30] of 2.77 µM and a TGI [30] of 14.3 µM. It also gave a GI50 [31] of 5.23 µM, a TGI [31] greater than 100 µM and a GI50 [32] of 2.24 µM. The TGI [32] was 7 µM, the GI50 [33] was 2.53 µM and the TGI [33] was 10.7 µM. It also gave a GI50 [34] of 3.21 µM, a TGI [34] of 13.7 µM and a GI50 [35] of 3.78 µM. It also gave a TGI [35] of 13.5 µM, a GI50 [36] of 7.62 µM and a TGI [36] of 24.3 µM. It also gave a GI50 [37] of 3.69 µM, a TGI [37] of 14 µM and a GI50 [38] of 2.56 µM. It also gave a TGI [38] of 15.6 µM, a GI50 [39] of 2.87 µM and a TGI [39] of 26 µM. It also gave a GI50 [40] of 12.2 µM, a TGI [40] of 28.2 µM and a GI50 [41] of 6.42 µM. The TGI [41] was 56.2 µM, the GI50 [42] was 4.28 µM and the TGI [42] was 59.1 µM. For the same compound, the GI50 [43] was 3.21 µM, the TGI [43] was 8.62 µM and the GI50 [44] was 6.08 µM. For the same compound, the TGI [44] was 22.5 µM, the GI50 [45] was 13.1 µM and the TGI [45] was 32.6 µM. The GI50 [46] was 1.7 µM, the TGI [46] was 3.53 µM and the GI50 [47] was 15.6 µM. The TGI [47] was 63.5 µM, the GI50 [48] was 3.19 µM and the TGI [48] was 11 µM. For the same compound, the GI50 [49] was 3.17 µM, the TGI [49] was 14.9 µM and the GI50 [50] was 3.77 µM. For the same compound, the TGI [50] was 16.4 µM, the GI50 [51] was 4.65 µM and the TGI [51] was greater than 100 µM. It also gave a GI50 [52] of 3.92 µM, a TGI [52] of 23.5 µM and a GI50 [53] of 4.05 µM. It also gave a TGI [53] of 18.8 µM, a GI50 [54] of 11.7 µM and a TGI [54] of 35.5 µM. For the same compound, the GI50 [55] was 3.45 µM, the TGI [55] was 10.5 µM and the GI50 [56] was 2.75 µM. For the same compound, the TGI [56] was 11.1 µM, the GI50 [57] was 2.93 µM and the TGI [57] was 8.38 µM. It also gave a GI50 [58] of 26 µM and a TGI [58] greater than 100 µM.
Work on `CCOC(=O)c1sc2c(c1OC(=O)c1cc(OC)c(OC)c(OC)c1)c(=O)n(-c1ccccc1)c(=S)n2-c1ccccc1` yielded a TGI [1] greater than 100 µM, a TGI [2] greater than 100 µM and a TGI [3] greater than 100 µM. For the same compound, the TGI [4] was greater than 100 µM, the TGI [6] was greater than 100 µM and the TGI [7] was greater than 100 µM. For the same compound, the TGI [8] was greater than 100 µM, the TGI [9] was greater than 100 µM and the TGI [10] was greater than 100 µM. For the same compound, the TGI [11] was greater than 100 µM, the TGI [12] was greater than 100 µM and the TGI [13] was greater than 100 µM. For the same compound, the TGI [14] was greater than 100 µM, the TGI [15] was greater than 100 µM and the TGI [16] was 95.3 µM. It also gave a TGI [17] greater than 100 µM, a TGI [18] greater than 100 µM and a TGI [19] greater than 100 µM. For the same compound, the TGI [20] was greater than 100 µM, the TGI [21] was greater than 100 µM and the TGI [22] was greater than 100 µM. It also gave a TGI [23] greater than 100 µM, a TGI [24] greater than 100 µM and a TGI [25] greater than 100 µM. It also gave a TGI [26] greater than 100 µM, a TGI [27] greater than 100 µM and a TGI [59] greater than 100 µM. For the same compound, the TGI [28] was greater than 100 µM, the TGI [29] was greater than 100 µM and the TGI [30] was greater than 100 µM. The TGI [31] was greater than 100 µM, the TGI [32] was 63.1 µM and the TGI [33] was greater than 100 µM. The TGI [34] was greater than 100 µM, the TGI [35] was greater than 100 µM and the TGI [36] was greater than 100 µM. The TGI [37] was greater than 100 µM, the TGI [38] was greater than 100 µM and the TGI [39] was greater than 100 µM. For the same compound, the TGI [40] was greater than 100 µM, the TGI [41] was greater than 100 µM and the TGI [42] was greater than 100 µM. The TGI [43] was greater than 100 µM, the TGI [45] was greater than 100 µM and the TGI [46] was greater than 100 µM. The TGI [47] was greater than 100 µM, the TGI [48] was greater than 100 µM and the TGI [49] was greater than 100 µM. It also gave a TGI [50] greater than 100 µM, a TGI [52] greater than 100 µM and a TGI [53] greater than 100 µM. It also gave a TGI [54] greater than 100 µM, a TGI [55] greater than 100 µM and a TGI [56] greater than 100 µM. It also gave a TGI [57] greater than 100 µM.
